{"source": "PubChem BioAssay AID1259407", "about": "(Chemical Carcinogenesis Research Information System (CCRIS), 2018)", "test_system": "CCRIS mutagenicity, Ames/micronucleus/aberration tests", "assay": "CCRIS mutagenicity studies", "key": {"[1]": {"conditions": "Test System: AMES SALMONELLA TYPHIMURIUM, Strain/Indicator: TA98, Metabolic Activation: NONE, Method: STANDARD PLATE"}, "[2]": {"conditions": "Test System: AMES SALMONELLA TYPHIMURIUM, Strain/Indicator: TA98, Metabolic Activation: RAT, LIVER, S-9, AROCLOR 1254, Method: STANDARD PLATE"}, "[3]": {"conditions": "Test System: AMES SALMONELLA TYPHIMURIUM, Strain/Indicator: TA100, Metabolic Activation: NONE, Method: STANDARD PLATE"}, "[4]": {"conditions": "Test System: AMES SALMONELLA TYPHIMURIUM, Strain/Indicator: TA100, Metabolic Activation: RAT, LIVER, S-9, AROCLOR 1254, Method: STANDARD PLATE"}, "[5]": {"conditions": "Test System: AMES SALMONELLA TYPHIMURIUM, Strain/Indicator: TA1535, Metabolic Activation: NONE, Method: STANDARD PLATE"}, "[6]": {"conditions": "Test System: AMES SALMONELLA TYPHIMURIUM, Strain/Indicator: TA1537, Metabolic Activation: NONE, Method: STANDARD PLATE"}}, "note": "Activity calls are given as the source filed them. The rule behind the calls is not given here.", "data": [{"compound": "CCOC(=O)CC(SP(=S)(OC)OC)C(=O)OCC", "note": "(configuration not stated)", "values": [{"measurement": "mutagenic call", "setting": "End Point: IN VITRO CHROMOSOMAL ABERRATIONS, Test System: CHINESE HAMSTER OVARY CELLS, Metabolic Activation: NONE", "value": "inactive; negative"}, {"measurement": "mutagenic call", "setting": "End Point: IN VITRO CHROMOSOMAL ABERRATIONS, Test System: CHINESE HAMSTER OVARY CELLS, Metabolic Activation: RAT, LIVER, S-9, AROCLOR 1254", "value": "active; positive; precipitation occurred at all doses"}, {"measurement": "mutagenic call", "setting": "End Point: IN VITRO MICRONUCLEUS, Test System: HUMAN PERIPHERAL LYMPHOCYTES, Metabolic Activation: NONE, Method: DUAL COLOR PROBE", "value": "active; positive"}, {"measurement": "mutagenic call", "setting": "End Point: IN VIVO CHROMOSOMAL ABERRATIONS, Test System: BONE MARROW, Species: MOUSE, Strain/Sex: SWISS/MALE, Route: IP INJECTION", "value": "active; positive (structural changes: chromosome gaps, abnormal metaphases)"}, {"measurement": "mutagenic call", "setting": "End Point: IN VIVO CHROMOSOMAL ABERRATIONS, Test System: BONE MARROW, Species: MOUSE, Strain/Sex: SWISS/MALE, Route: ORAL (DIET)", "value": "active; positive (structural changes: gaps, breaks, deletions, tetraploidy)"}, {"measurement": "mutagenic call", "setting": "End Point: IN VIVO MICRONUCLEUS, Test System: BONE MARROW POLYCHROMATIC ERYTHROCYTES, Species: MOUSE, Strain/Sex: SWISS/MALE, FEMALE, Route: IP INJECTION", "value": "active; positive; higher dose effective"}, {"measurement": "mutagenic call", "setting": "End Point: IN VIVO MICRONUCLEUS, Test System: BONE MARROW POLYCHROMATIC ERYTHROCYTES, Species: MOUSE, Strain/Sex: SWISS/MALE, FEMALE, Route: ORAL", "value": "active; positive"}, {"measurement": "mutagenic call", "setting": "End Point: In vivo micronucleus, Test System: Peripheral blood polychromatic and normochromatic erythrocytes, Species: Rat, Strain/Sex: Wistar/Male, Route: Intraperitoneal", "value": "active; positive. positive response at highest dose."}, {"measurement": "mutagenic call", "setting": "End Point: In vivo micronucleus, Test System: Peripheral blood polychromatic erythrocytes, Species: Rat, Strain/Sex: Wistar/Male, Route: Intraperitoneal", "value": "inactive; negative. increases in ratio of polychromatic erythrocytes to normochromatic lym"}, {"measurement": "mutagenic call", "setting": "Test System: AMES SALMONELLA TYPHIMURIUM, Strain/Indicator: TA97A, Metabolic Activation: NONE, Method: STANDARD PLATE", "value": "inactive; negative"}, {"measurement": "mutagenic call", "setting": "Test System: AMES SALMONELLA TYPHIMURIUM, Strain/Indicator: TA97A, Metabolic Activation: RAT, CECAL CELL FREE EXTRACT, Method: STANDARD PLATE", "value": "inactive; negative"}, {"measurement": "mutagenic call", "setting": "Test System: AMES SALMONELLA TYPHIMURIUM, Strain/Indicator: TA97A, Metabolic Activation: RAT, LIVER, S-9, AROCLOR 1254, Method: STANDARD PLATE", "value": "inactive; negative"}, {"measurement": "mutagenic call", "setting": "[1]", "value": "inactive; negative"}, {"measurement": "mutagenic call", "setting": "Test System: AMES SALMONELLA TYPHIMURIUM, Strain/Indicator: TA98, Metabolic Activation: RAT, CECAL CELL FREE EXTRACT, Method: STANDARD PLATE", "value": "inactive; negative"}, {"measurement": "mutagenic call", "setting": "[2]", "value": "inactive; negative"}, {"measurement": "mutagenic call", "setting": "Test System: AMES SALMONELLA TYPHIMURIUM, Strain/Indicator: TA98, Metabolic Activation: S-9, NADPH GENERATING SYSTEM, Method: STANDARD PLATE", "value": "inactive; negative"}, {"measurement": "mutagenic call", "setting": "[3]", "value": "inactive; negative"}, {"measurement": "mutagenic call", "setting": "Test System: AMES SALMONELLA TYPHIMURIUM, Strain/Indicator: TA100, Metabolic Activation: RAT, CECAL CELL FREE EXTRACT, Method: STANDARD PLATE", "value": "inactive; negative"}, {"measurement": "mutagenic call", "setting": "[4]", "value": "inactive; negative"}, {"measurement": "mutagenic call", "setting": "Test System: AMES SALMONELLA TYPHIMURIUM, Strain/Indicator: TA102, Metabolic Activation: NONE, Method: STANDARD PLATE", "value": "inactive; negative"}, {"measurement": "mutagenic call", "setting": "Test System: AMES SALMONELLA TYPHIMURIUM, Strain/Indicator: TA102, Metabolic Activation: S-9, NADPH GENERATING SYSTEM, Method: STANDARD PLATE", "value": "inactive; negative"}, {"measurement": "mutagenic call", "setting": "[5]", "value": "inactive; negative"}, {"measurement": "mutagenic call", "setting": "Test System: AMES SALMONELLA TYPHIMURIUM, Strain/Indicator: TA1535, Metabolic Activation: S-9, NADPH GENERATING SYSTEM, Method: STANDARD PLATE", "value": "inactive; negative"}, {"measurement": "mutagenic call", "setting": "[6]", "value": "inactive; negative"}, {"measurement": "mutagenic call", "setting": "Test System: AMES SALMONELLA TYPHIMURIUM, Strain/Indicator: TA1537, Metabolic Activation: S-9, NADPH GENERATING SYSTEM, Method: STANDARD PLATE", "value": "inactive; negative"}]}, {"compound": "C=C(C#N)C(=O)OCC", "values": [{"measurement": "mutagenic call", "setting": "[3]", "value": "inactive; negative"}, {"measurement": "mutagenic call", "setting": "[4]", "value": "inactive; negative"}]}, {"compound": "CNC(=O)C(C)SCCSP(=O)(OC)OC", "note": "(configuration not stated)", "values": [{"measurement": "mutagenic call", "setting": "Test System: E. COLI, Strain/Indicator: WP2, Metabolic Activation: NONE, Method: STANDARD PLATE", "value": "active; positive"}, {"measurement": "mutagenic call", "setting": "Test System: E. COLI, Strain/Indicator: WP2 UVRA, Metabolic Activation: NONE, Method: STANDARD PLATE", "value": "active; positive"}]}, {"compound": "Cc1cc(C(O)c2ncc([N+](=O)[O-])n2C)c(O)c(C(C)(C)C)c1", "note": "(configuration not stated)", "values": [{"measurement": "mutagenic call", "setting": "[1]", "value": "inactive; negative"}, {"measurement": "mutagenic call", "setting": "[2]", "value": "inactive; negative"}, {"measurement": "mutagenic call", "setting": "[3]", "value": "inactive; negative"}, {"measurement": "mutagenic call", "setting": "[4]", "value": "inactive; negative"}, {"measurement": "mutagenic call", "setting": "[5]", "value": "inactive; negative"}, {"measurement": "mutagenic call", "setting": "Test System: AMES SALMONELLA TYPHIMURIUM, Strain/Indicator: TA1535, Metabolic Activation: RAT, LIVER, S-9, AROCLOR 1254, Method: STANDARD PLATE", "value": "inactive; negative"}, {"measurement": "mutagenic call", "setting": "[6]", "value": "inactive; negative"}, {"measurement": "mutagenic call", "setting": "Test System: AMES SALMONELLA TYPHIMURIUM, Strain/Indicator: TA1537, Metabolic Activation: RAT, LIVER, S-9, AROCLOR 1254, Method: STANDARD PLATE", "value": "inactive; negative"}, {"measurement": "mutagenic call", "setting": "Test System: AMES SALMONELLA TYPHIMURIUM, Strain/Indicator: TA1538, Metabolic Activation: NONE, Method: STANDARD PLATE", "value": "inactive; negative"}, {"measurement": "mutagenic call", "setting": "Test System: AMES SALMONELLA TYPHIMURIUM, Strain/Indicator: TA1538, Metabolic Activation: RAT, LIVER, S-9, AROCLOR 1254, Method: STANDARD PLATE", "value": "inactive; negative"}]}, {"compound": "O=[N+]([O-])c1ccc2c(c1)-c1ccc([N+](=O)[O-])c3cccc-2c13", "values": [{"measurement": "mutagenic call", "setting": "Test System: AMES SALMONELLA TYPHIMURIUM, Strain/Indicator: TA97, Metabolic Activation: NONE", "value": "active; positive"}, {"measurement": "mutagenic call", "setting": "Test System: AMES SALMONELLA TYPHIMURIUM, Strain/Indicator: TA98(1,8-DNP6), Metabolic Activation: NONE", "value": "active; positive"}, {"measurement": "mutagenic call", "setting": "Test System: AMES SALMONELLA TYPHIMURIUM, Strain/Indicator: TA98(NR), Metabolic Activation: NONE", "value": "active; positive"}, {"measurement": "mutagenic call", "setting": "Test System: AMES SALMONELLA TYPHIMURIUM, Strain/Indicator: TA98, Metabolic Activation: NONE", "value": "active; positive"}, {"measurement": "mutagenic call", "setting": "Test System: AMES SALMONELLA TYPHIMURIUM, Strain/Indicator: TA100, Metabolic Activation: NONE", "value": "active; positive"}, {"measurement": "mutagenic call", "setting": "Test System: AMES SALMONELLA TYPHIMURIUM, Strain/Indicator: TA1535, Metabolic Activation: NONE", "value": "inactive; negative"}, {"measurement": "mutagenic call", "setting": "Test System: AMES SALMONELLA TYPHIMURIUM, Strain/Indicator: TA1537, Metabolic Activation: NONE", "value": "active; positive"}, {"measurement": "mutagenic call", "setting": "Test System: AMES SALMONELLA TYPHIMURIUM, Strain/Indicator: TA1538, Metabolic Activation: NONE", "value": "active; positive"}, {"measurement": "mutagenic call", "setting": "Test System: AMES SALMONELLA TYPHIMURIUM, Strain/Indicator: TA1978, Metabolic Activation: NONE", "value": "active; positive"}]}, {"compound": "Cc1occc(=O)c1O", "values": [{"measurement": "mutagenic call", "setting": "End Point: IN VIVO MICRONUCLEUS, Test System: BONE MARROW POLYCHROMATIC ERYTHROCYTES, Species: MOUSE, Strain/Sex: DDY/MALE, Route: IP", "value": "active; positive"}, {"measurement": "mutagenic call", "setting": "Test System: AMES SALMONELLA TYPHIMURIUM, Strain/Indicator: TA92, Metabolic Activation: NONE, Method: STANDARD PLATE", "value": "inactive; negative"}, {"measurement": "mutagenic call", "setting": "Test System: AMES SALMONELLA TYPHIMURIUM, Strain/Indicator: TA97, Metabolic Activation: NONE, Method: PREINCUBATION", "value": "inactive; negative"}, {"measurement": "mutagenic call", "setting": "Test System: AMES SALMONELLA TYPHIMURIUM, Strain/Indicator: TA97, Metabolic Activation: RAT, LIVER, S-9, AROCLOR 1254, Method: PREINCUBATION", "value": "inactive; negative"}, {"measurement": "mutagenic call", "setting": "[1]", "value": "inactive; negative"}, {"measurement": "mutagenic call", "setting": "[3]", "value": "inactive; negative"}, {"measurement": "mutagenic call", "setting": "Test System: AMES SALMONELLA TYPHIMURIUM, Strain/Indicator: TA102, Metabolic Activation: NONE, Method: PREINCUBATION", "value": "inactive; negative"}, {"measurement": "mutagenic call", "setting": "Test System: AMES SALMONELLA TYPHIMURIUM, Strain/Indicator: TA102, Metabolic Activation: RAT, LIVER, S-9, AROCLOR 1254, Method: PREINCUBATION", "value": "inactive; negative"}, {"measurement": "mutagenic call", "setting": "Test System: AMES SALMONELLA TYPHIMURIUM, Strain/Indicator: TA104, Metabolic Activation: NONE, Method: STANDARD PLATE", "value": "inactive; negative"}]}]}
